The structures appear in SMILES notation. Starred links: 1 amine or outer side, 2 acyl side, 3 side chain; linkers in the order of their positions; H or OH if unused. Positions of bridges follow the written chain, without caps; N, C: chain ends. Non-standard residues stand in square brackets, D forms with d. Residues, ends and D or L forms follow the SMILES beside them. TATA = O=C(CC[*:1])N1CN(C(=O)CC[*:2])CN(C(=O)CC[*:3])C1; Hyp = O=C(O)[C@@H]1C[C@@H](O)CN1; hArg = N=C(N)NCCCC[C@H](N)C(=O)O; 2Thi = N[C@@H](Cc1cccs1)C(=O)O; 3Thi = N[C@@H](Cc1ccsc1)C(=O)O

By Ki is commonly meant a measure of affinity in units of concentration, obtained from inhibition or displacement. A lower Ki goes with a stronger hold on the target.

For this assay, the target named is human EphA2 (Homo sapiens, UniProt P29317). Kind of assay: biochemical.
Chain of human EphA2 (P29317 24-976): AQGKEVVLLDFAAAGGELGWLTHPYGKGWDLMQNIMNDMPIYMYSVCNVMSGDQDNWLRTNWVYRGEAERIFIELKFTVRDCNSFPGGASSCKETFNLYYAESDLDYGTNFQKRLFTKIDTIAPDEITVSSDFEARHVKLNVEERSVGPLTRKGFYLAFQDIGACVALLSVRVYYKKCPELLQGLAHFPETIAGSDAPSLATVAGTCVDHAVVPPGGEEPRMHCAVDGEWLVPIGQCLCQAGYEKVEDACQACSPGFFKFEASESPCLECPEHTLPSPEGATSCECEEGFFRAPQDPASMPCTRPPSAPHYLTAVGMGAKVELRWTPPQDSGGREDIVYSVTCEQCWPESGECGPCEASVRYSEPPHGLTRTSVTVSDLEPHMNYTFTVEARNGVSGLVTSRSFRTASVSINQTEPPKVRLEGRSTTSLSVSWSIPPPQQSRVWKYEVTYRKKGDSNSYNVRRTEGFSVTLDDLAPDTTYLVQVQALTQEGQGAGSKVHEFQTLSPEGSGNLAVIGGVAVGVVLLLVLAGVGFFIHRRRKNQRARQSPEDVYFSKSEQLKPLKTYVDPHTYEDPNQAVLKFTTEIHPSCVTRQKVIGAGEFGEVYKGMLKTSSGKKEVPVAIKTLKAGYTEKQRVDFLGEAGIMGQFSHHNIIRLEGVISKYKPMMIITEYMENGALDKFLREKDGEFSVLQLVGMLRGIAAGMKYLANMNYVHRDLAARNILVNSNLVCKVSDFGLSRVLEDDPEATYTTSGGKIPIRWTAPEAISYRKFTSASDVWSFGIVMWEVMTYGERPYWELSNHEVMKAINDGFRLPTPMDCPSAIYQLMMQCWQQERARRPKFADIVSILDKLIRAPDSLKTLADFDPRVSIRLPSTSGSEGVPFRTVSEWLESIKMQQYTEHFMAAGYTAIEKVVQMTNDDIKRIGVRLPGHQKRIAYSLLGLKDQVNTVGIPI
Description: Peptides without a fluorescent tag were tested in competition with a peptide with a fluorescent tag and a known Kd.
Peptides were diluted to an appropriate concentration in assay buffer as described in the direct binding assay with a maximum of 5% DMSO, then serially diluted 1 in 2. […] Measurements were conducted, however the gain was determined prior to the first measurement. Data analysis was in Systat Sigmaplot version 12.0 where the mP values were fit to a user defined cubic equation to generate a Ki value:
“Lig”, “KLig” and “Prot” were all defined values relating to: fluorescent peptide concentration, the Kd of the fluorescent peptide and EphA2 concentration respectively.
As to `CC(C)C[C@@H]1NC(=O)[C@@H]2CSCCC(=O)N3CN(CN(C3)C(=O)CCSC[C@H](NC(=O)[C@H](CC(=O)O)NC(=O)[C@H](CCCCNC(=N)N)NC(=O)[C@H](C)N)C(=O)N3C[C@H](O)C[C@H]3C(=O)N[C@@H](CC(C)C)C(=O)N[C@@H](C(C)C)C(=O)N[C@@H](CC(N)=O)C(=O)N3CCC[C@H]3C(=O)N[C@@H](CC(C)C)C(=O)N2)C(=O)CCSC[C@@H](C(N)=O)NC(=O)[C@H](CCCCNC(=N)N)NC(=O)[C@H](Cc2c[nH]c3ccccc23)NC(=O)[C@@H](CC(=O)O)NC(=O)[C@@H]2CCCN2C(=O)[C@H](Cc2cccs2)NC1=O` [BCY13922, A[HArg]DCi[HyP]LVNPLCiiL[Thi]P[dD]W[HArg]Ciii] (H-A[hArg]DC[Hyp]LVNPLCL[2Thi]P[dD]W[hArg]C-NH2; linker 4-11-18 via TATA; N-terminus and C-terminus assumed), the Ki was found to be 1.14 nM.

For `CC(C)C[C@@H]1NC(=O)[C@@H]2CSCCC(=O)N3CN(CN(C3)C(=O)CCSC[C@H](NC(=O)[C@H](CC(=O)O)NC(=O)[C@H](CCCCNC(=N)N)NC(=O)[C@H](C)N)C(=O)N3C[C@H](O)C[C@H]3C(=O)N[C@@H](CC(C)C)C(=O)N[C@@H](C(C)C)C(=O)N[C@@H](CC(N)=O)C(=O)N3CCC[C@H]3C(=O)N[C@@H](CC(C)C)C(=O)N2)C(=O)CCSC[C@@H](C(N)=O)NC(=O)[C@H](CCCCNC(=N)N)NC(=O)[C@H](Cc2c[nH]c3ccccc23)NC(=O)[C@@H](CC(=O)O)NC(=O)[C@@H]2CCCN2C(=O)[C@H](Cc2ccsc2)NC1=O` [BCY13923, A[HArg]DCi[HyP]LVNPLCiiL[3Thi]P[dD]W[HArg]Ciii] (H-A[hArg]DC[Hyp]LVNPLCL[3Thi]P[dD]W[hArg]C-NH2; linker 4-11-18 via TATA; N-terminus and C-terminus assumed), the affinity corresponds to a Ki of 1.32 nM.

In the case of `CC(C)C[C@@H]1NC(=O)[C@@H]2CSCCC(=O)N3CN(CN(C3)C(=O)CCSC[C@H](NC(=O)[C@H](CC(=O)O)NC(=O)[C@H](CCCCNC(=N)N)NC(=O)[C@H](C)N)C(=O)N3C[C@H](O)C[C@H]3C(=O)N[C@@H](CC(C)C)C(=O)N[C@@H](C(C)C)C(=O)N[C@@H](CC(N)=O)C(=O)N3CCC[C@H]3C(=O)N[C@@H](CC(C)C)C(=O)N2)C(=O)CCSC[C@@H](C(N)=O)NC(=O)[C@H](CCCCNC(=N)N)NC(=O)[C@H](Cc2c[nH]c3ccccc23)NC(=O)[C@@H](CC(=O)O)NC(=O)[C@@H]2CCCN2C(=O)[C@H](CC(N)=O)NC1=O` [BCY14047, A[HArg]DCi[HyP]LVNPLCiiLNP[dD]W[HArg]Ciii] (H-A[hArg]DC[Hyp]LVNPLCLNP[dD]W[hArg]C-NH2; linker 4-11-18 via TATA; N-terminus and C-terminus assumed), the inhibitory constant (Ki) came out at 3.88 nM.

Compound `CC(C)C[C@@H]1NC(=O)[C@@H]2CSCCC(=O)N3CN(CN(C3)C(=O)CCSC[C@H](NC(=O)[C@H](CC(=O)O)NC(=O)[C@H](CCCCNC(=N)N)NC(=O)[C@H](C)N)C(=O)N3C[C@H](O)C[C@H]3C(=O)N[C@@H](CC(C)C)C(=O)N[C@@H](C(C)C)C(=O)N[C@@H](CC(N)=O)C(=O)N3CCC[C@H]3C(=O)N[C@@H](CC(C)C)C(=O)N2)C(=O)CCSC[C@@H](C(N)=O)NC(=O)[C@H](CCCCNC(=N)N)NC(=O)[C@H](Cc2c[nH]c3ccccc23)NC(=O)[C@@H](CC(=O)O)NC(=O)[C@@H]2CCCN2C(=O)[C@H](CCC(N)=O)NC1=O` [BCY14048, A[HArg]DCi[HyP]LVNPLCiiLQP[dD]W[HArg]Ciii] (H-A[hArg]DC[Hyp]LVNPLCLQP[dD]W[hArg]C-NH2; linker 4-11-18 via TATA; N-terminus and C-terminus assumed) showed a Ki of 4.1 nM.

These data come from patent US12570695B2, “Bicyclic peptide ligands specific for EphA2” (priority 2019, dated 2026).
